From patent US9763443B2, “Control of bed bugs” (Ensystex Inc., priority 2011, dated 2017)

Key:
[1] = tested on: humans and animals; settings: even when applied directly to a subject's skin; cited from earlier work
[2] = tested on: bed bugs; test: Toxicity and durability of toxicity of undiluted DMSO on filter paper in arenas (Example 1A); type: in vivo
Method: 0.1 milliliters of Fisher Biotech Molecular Biology Grade 99.7% DMSO (CAS#67-68-5) was applied to each of five 3.5 cm diameter disks of Fisherbrand Qualitative P8 filter paper. […] The arenas were placed in an incubator set to maintain a temperature of 22° C.
At the end of 24 hours, timed from the initial placement of the bed bugs on the filter papers, all of the arenas were removed from the incubator and opened and the bed bugs were examined. […] The bed bugs in the control jar were all still alive.
Without removing the filter paper, the dead bed bugs in the 5 arenas were removed and replaced by the same number (10) of live bed bugs in each arena. The arenas were again placed in the incubator and re-examined 24 hours later. The replacement bed bugs in the 5 arenas were also all dead.
All of the bed bugs in the control jar were all still alive at the end of the last testing interval.

[3] = tested on: bed bugs; test: Repellency to bed bugs, general finding; type: in vivo; settings: with or without additional insecticidal active ingredient, any DMSO concentration
[4] = tested on: bed bugs; test: Contact toxicity to bed bugs, general findings in the description; type: in vivo

Structure (SMILES) | toxicity in exposure to humans and animals [1] | bed bug mortality at end of 24 hours ([2]; 0.1 mL 99.7% DMSO on 3.5 cm filter paper, 5 arenas, 10 bed bugs each, 22° C., first 24 hours) | mortality at end of each 24 hour interval, three more replications ([2]; same filter paper, replications 3 to 5 at 24 hour intervals) | mortality of replacement bed bugs 24 hours later ([2]; same filter paper, second 24 hour interval, 10 live bed bugs per arena) | repellency effects [3] | toxicity to bed bugs upon contact ([4]; DMSO alone, no insecticidal active ingredient or synergist) | toxicity-enhancing characteristics ([4]; as penetration enhancer in insecticidal formulations)
C[S+](C)[O-] [DMSO, dimethyl sulfoxide] | low toxicity | All of the bed bugs in all 5 of the jars containing DMSO treated filter paper were dead | all bed bugs found to be dead | also all dead | not accompanied by any repellency effects | highly toxic to bed bugs upon contact | –
CCCCCCCCCCCCN1CCCCCC1=O [laurocapram, reference compound] | – | – | – | – | – | – | exhibits toxicity-enhancing characteristics similar to DMSO
